From patent publication US20250147039A1, “Compounds for complexation of rare earth elements and/or s-, p-, d- block metals, their coordination compounds, peptide conjugates, method of their preparation and use thereof” (USTAV ORGANICKE CHEMIE A BIOCHEMIE AV CR V.V.I., priority 2021, published 2025)

How the values were obtained:
Assay type in all cases: physicochemical
[1] = pH dependent formation of 1,5- and 1,4-cz-Lig isomers from Lig (pH dependent click-zip) (Chart 13)
[2] = Alkali metal dependent formation of 1,5-cz-Lig and 1,4-cz-Lig isomers from Lig at pH 10.2 (Chart 14); conditions: Borate/(M^I)2CO3 buffer pH 10.2
[3] = Formation of 1,5-cz-[Lu(Lig)] from Lig (metal dependent click-zip) with various absolute concentrations (Chart 12)
[4] = A: 1 hour at 80° C., pH 7.0, 50 mM aq. buffer
[5] = A: 1 hour at 80° C., pH 8.6, 50 mM aq. buffer
[6] = A: 1 hour at 80° C., pH 9.4, 50 mM aq. buffer
[7] = A: 1 hour at 80° C., pH 10.2, 50 mM aq. buffer
[8] = B: 1 day at 80° C., 0.1M HClO4 (pH ~1)
[9] = B: 1 day at 80° C., 1.0M HClO4 (pH ~0)
[10] = B: 1 day at 80° C., pH 2.2, 50 mM aq. buffer
[11] = B: 1 day at 80° C., pH 3.0, 50 mM aq. buffer
[12] = B: 1 day at 80° C., pH 3.8, 50 mM aq. buffer
[13] = B: 1 day at 80° C., pH 4.6, 50 mM aq. buffer
[14] = B: 1 day at 80° C., pH 5.4, 50 mM aq. buffer
[15] = B: 1 day at 80° C., pH 6.2, 50 mM aq. buffer
[16] = B: 1 day at 80° C., pH 7.0, 50 mM aq. buffer
[17] = B: 1 day at 80° C., pH 8.6, 50 mM aq. buffer
[18] = B: 1 day at 80° C., pH 9.4, 50 mM aq. buffer
[19] = B: 1 day at 80° C., pH 10.2, 50 mM aq. buffer
[20] = B: 1 day at 80° C., visible analyte free precipitate

- conversion to 1,5-cz-Lig isomer ([1]; A: 1 hour at 80° C., pH 6.2, 50 mM aq. buffer): 1%
- conversion to 1,4-cz-Lig isomer [1, 4]: 2%
- conversion to 1,5-cz-Lig isomer [1, 4]: 1%
- conversion to 1,4-cz-Lig isomer [1, 5]: 3%
- conversion to 1,5-cz-Lig isomer [1, 5]: 2%
- conversion to 1,4-cz-Lig isomer [1, 6]: 3%
- conversion to 1,5-cz-Lig isomer [1, 6]: 8%
- conversion to 1,4-cz-Lig isomer [1, 7]: 2%
- conversion to 1,5-cz-Lig isomer [1, 7]: 17%
- conversion to 1,4-cz-Lig isomer [1, 8]: 5%
- conversion to 1,5-cz-Lig isomer [1, 8]: 91%
- conversion to 1,4-cz-Lig isomer [1, 9]: 8%
- conversion to 1,5-cz-Lig isomer [1, 9]: 72%
- conversion to 1,4-cz-Lig isomer [1, 10]: 6%
- conversion to 1,5-cz-Lig isomer [1, 10]: 88%
- conversion to 1,4-cz-Lig isomer [1, 11]: 6%
- conversion to 1,5-cz-Lig isomer [1, 11]: 69%
- conversion to 1,4-cz-Lig isomer [1, 12]: 6%
- conversion to 1,5-cz-Lig isomer [1, 12]: 22%
- conversion to 1,4-cz-Lig isomer [1, 13]: 5%
- conversion to 1,5-cz-Lig isomer [1, 13]: 13%
- conversion to 1,4-cz-Lig isomer [1, 14]: 6%
- conversion to 1,5-cz-Lig isomer [1, 14]: 12%
- conversion to 1,4-cz-Lig isomer [1, 15]: 12%
- conversion to 1,5-cz-Lig isomer [1, 15]: 11%
- conversion to 1,4-cz-Lig isomer [1, 16]: 23%
- conversion to 1,5-cz-Lig isomer [1, 16]: 19%
- conversion to 1,4-cz-Lig isomer [1, 17]: 32%
- conversion to 1,5-cz-Lig isomer [1, 17]: 26%
- conversion to 1,4-cz-Lig isomer [1, 18]: 17%
- conversion to 1,5-cz-Lig isomer [1, 18]: 60%
- conversion to 1,4-cz-Lig isomer [1, 19]: 5%
- conversion to 1,5-cz-Lig isomer [1, 19]: 80%
- conversion to 1,4-cz-Lig isomer, Cs^I ([2]; A: 1 hour at 80° C.): 2%
- conversion to 1,4-cz-Lig isomer, K^I ([2]; A: 1 hour at 80° C.): 2%
- conversion to 1,4-cz-Lig isomer, Li^I ([2]; A: 1 hour at 80° C.): 0%
- conversion to 1,4-cz-Lig isomer, Na^I ([2]; A: 1 hour at 80° C.): 1%
- conversion to 1,4-cz-Lig isomer, Rb^I ([2]; A: 1 hour at 80° C.): 2%
- conversion to 1,5-cz-Lig isomer, Cs^I ([2]; A: 1 hour at 80° C.): 0%
- conversion to 1,5-cz-Lig isomer, K^I ([2]; A: 1 hour at 80° C.): 1%
- conversion to 1,5-cz-Lig isomer, Li^I ([2]; A: 1 hour at 80° C.): 0%
- conversion to 1,5-cz-Lig isomer, Na^I ([2]; A: 1 hour at 80° C.): 15%
- conversion to 1,5-cz-Lig isomer, Rb^I ([2]; A: 1 hour at 80° C.): 0%
- conversion to 1,4-cz-Lig isomer, Cs^I ([2]; B: 1 day at 80° C.): 39%
- conversion to 1,4-cz-Lig isomer, K^I ([2]; B: 1 day at 80° C.): 40%
- conversion to 1,4-cz-Lig isomer, Na^I ([2]; B: 1 day at 80° C.): 1%
- conversion to 1,4-cz-Lig isomer, Rb^I ([2]; B: 1 day at 80° C.): 41%
- conversion to 1,5-cz-Lig isomer, Cs^I ([2]; B: 1 day at 80° C.): 7%
- conversion to 1,5-cz-Lig isomer, K^I ([2]; B: 1 day at 80° C.): 10%
- conversion to 1,5-cz-Lig isomer, Na^I ([2]; B: 1 day at 80° C.): 85%
- conversion to 1,5-cz-Lig isomer, Rb^I ([2]; B: 1 day at 80° C.): 6%
- conversion to 1,4-cz-Lig isomer, Li^I [2, 20]: 2%
- conversion to 1,5-cz-Lig isomer, Li^I [2, 20]: 9%
- conversion to 1,5-cz-[Lu(Lig)] ([3]; A: 1 hour at 80° C., Lig 5.0 × 10^0 mM, Lu^III 7.5 × 10^0 mM): 74%
- conversion to 1,5-cz-[Lu(Lig)] ([3]; A: 1 hour at 80° C., Lig 5.0 × 10^1 mM, Lu^III 7.5 × 10^1 mM): 71%
- conversion to 1,5-cz-[Lu(Lig)] ([3]; A: 1 hour at 80° C., Lig 5.0 × 10^−1 mM, Lu^III 7.5 × 10^−1 mM): 70%
- conversion to 1,5-cz-[Lu(Lig)] ([3]; A: 1 hour at 80° C., Lig 5.0 × 10^−2 mM, Lu^III 7.5 × 10^−2 mM): 60%
- conversion to 1,5-cz-[Lu(Lig)] ([3]; A: 1 hour at 80° C., Lig 5.0 × 10^−3 mM, Lu^III 7.5 × 10^−3 mM): 15%
- conversion to 1,5-cz-[Lu(Lig)] ([3]; B: 1 day at 80° C., Lig 5.0 × 10^0 mM, Lu^III 7.5 × 10^0 mM): 96%
- conversion to 1,5-cz-[Lu(Lig)] ([3]; B: 1 day at 80° C., Lig 5.0 × 10^1 mM, Lu^III 7.5 × 10^1 mM): 84%
- conversion to 1,5-cz-[Lu(Lig)] ([3]; B: 1 day at 80° C., Lig 5.0 × 10^−1 mM, Lu^III 7.5 × 10^−1 mM): 97%
- conversion to 1,5-cz-[Lu(Lig)] ([3]; B: 1 day at 80° C., Lig 5.0 × 10^−2 mM, Lu^III 7.5 × 10^−2 mM): 96%
- conversion to 1,5-cz-[Lu(Lig)] ([3]; B: 1 day at 80° C., Lig 5.0 × 10^−3 mM, Lu^III 7.5 × 10^−3 mM): 59%
- conversion to 1,5-cz-[Lu(Lig)] ([3]; C: 1 week at 80° C., Lig 5.0 × 10^0 mM, Lu^III 7.5 × 10^0 mM): 96%
- conversion to 1,5-cz-[Lu(Lig)] ([3]; C: 1 week at 80° C., Lig 5.0 × 10^1 mM, Lu^III 7.5 × 10^1 mM): 86%
- conversion to 1,5-cz-[Lu(Lig)] ([3]; C: 1 week at 80° C., Lig 5.0 × 10^−1 mM, Lu^III 7.5 × 10^−1 mM): 97%
- conversion to 1,5-cz-[Lu(Lig)] ([3]; C: 1 week at 80° C., Lig 5.0 × 10^−2 mM, Lu^III 7.5 × 10^−2 mM): 96%
- conversion to 1,5-cz-[Lu(Lig)] ([3]; C: 1 week at 80° C., Lig 5.0 × 10^−3 mM, Lu^III 7.5 × 10^−3 mM): 57%
Compound: C#Cc1cccc(CN2CCN(CC(=O)O)CCN(Cc3cc(-c4ccccc4)cc(CN=[N+]=[N-])n3)CCN(CC(=O)O)CC2)n1 [TD647]
